Test [1] concerns the target T1, NUAK family SNF1-like kinase 2 (Homo sapiens) (UniProt Q9H093).
T1 sequence (whole entry): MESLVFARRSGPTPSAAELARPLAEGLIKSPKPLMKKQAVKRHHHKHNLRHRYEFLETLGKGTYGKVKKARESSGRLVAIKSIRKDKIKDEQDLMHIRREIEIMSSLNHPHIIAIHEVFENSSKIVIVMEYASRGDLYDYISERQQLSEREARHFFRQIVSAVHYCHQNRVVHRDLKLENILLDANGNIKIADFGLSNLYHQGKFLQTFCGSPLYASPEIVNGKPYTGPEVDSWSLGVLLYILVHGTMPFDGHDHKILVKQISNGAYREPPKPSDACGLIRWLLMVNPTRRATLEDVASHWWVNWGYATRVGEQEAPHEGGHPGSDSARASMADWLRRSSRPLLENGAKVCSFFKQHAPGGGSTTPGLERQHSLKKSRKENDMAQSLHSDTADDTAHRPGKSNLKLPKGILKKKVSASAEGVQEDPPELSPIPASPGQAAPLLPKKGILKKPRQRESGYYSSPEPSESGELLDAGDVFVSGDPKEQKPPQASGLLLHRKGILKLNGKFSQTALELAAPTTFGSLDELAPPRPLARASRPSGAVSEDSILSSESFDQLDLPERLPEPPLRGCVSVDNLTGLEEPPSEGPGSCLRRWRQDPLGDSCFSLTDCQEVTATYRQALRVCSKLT
In words: Selectivity interaction (ActivX KiNativ screen (ex vivo kinase selectivity in human PBMCs)) EUB0001619a NUAK2. The test is classed as cell-based. The following applies: PBMC, at 1 µM.

The target of test [2] is Serine/threonine-protein kinase MRCK gamma (Homo sapiens) (UniProt Q6DT37). In words: Selectivity interaction (KinomeScan (DiscoverX)) EUB0001619a CDC42BPG. The following applies: at 1 µM.
Test [3] deals with Angiopoietin-1 receptor (Homo sapiens) (UniProt Q02763). The following applies: at 10 µM.
Chain of Angiopoietin-1 receptor (Homo sapiens) (Q02763 whole entry, canonical isoform): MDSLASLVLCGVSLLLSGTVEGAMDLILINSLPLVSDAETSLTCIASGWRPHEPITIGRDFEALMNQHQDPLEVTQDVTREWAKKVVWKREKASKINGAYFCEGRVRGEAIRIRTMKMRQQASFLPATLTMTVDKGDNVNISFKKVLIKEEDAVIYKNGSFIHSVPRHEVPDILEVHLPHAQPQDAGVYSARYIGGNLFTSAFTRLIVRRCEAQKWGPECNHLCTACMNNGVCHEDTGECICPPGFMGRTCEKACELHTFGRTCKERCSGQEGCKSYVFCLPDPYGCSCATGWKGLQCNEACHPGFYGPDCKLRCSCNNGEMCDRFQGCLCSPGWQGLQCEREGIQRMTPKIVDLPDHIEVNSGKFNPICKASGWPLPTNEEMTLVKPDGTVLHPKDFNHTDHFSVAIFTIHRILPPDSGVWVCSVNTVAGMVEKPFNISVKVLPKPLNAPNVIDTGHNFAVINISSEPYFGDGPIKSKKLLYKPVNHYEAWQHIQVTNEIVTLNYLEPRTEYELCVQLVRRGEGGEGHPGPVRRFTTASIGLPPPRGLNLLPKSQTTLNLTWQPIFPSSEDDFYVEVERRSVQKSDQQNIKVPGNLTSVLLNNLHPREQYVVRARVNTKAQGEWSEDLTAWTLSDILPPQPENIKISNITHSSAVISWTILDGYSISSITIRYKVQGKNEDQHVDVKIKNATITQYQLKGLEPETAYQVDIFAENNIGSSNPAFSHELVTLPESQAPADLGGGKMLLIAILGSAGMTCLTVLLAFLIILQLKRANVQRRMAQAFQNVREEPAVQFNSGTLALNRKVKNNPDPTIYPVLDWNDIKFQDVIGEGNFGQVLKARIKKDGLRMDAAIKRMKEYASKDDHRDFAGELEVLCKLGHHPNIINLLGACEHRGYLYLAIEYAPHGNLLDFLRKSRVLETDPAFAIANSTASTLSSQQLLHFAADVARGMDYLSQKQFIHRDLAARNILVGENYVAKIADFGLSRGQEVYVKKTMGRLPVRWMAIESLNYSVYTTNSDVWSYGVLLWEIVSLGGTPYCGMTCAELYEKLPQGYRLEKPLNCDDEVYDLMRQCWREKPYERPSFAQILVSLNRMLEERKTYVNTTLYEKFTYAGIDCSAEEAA
Test [4] addresses T2, Phosphatidylinositol 4,5-bisphosphate 3-kinase catalytic subunit delta isoform (Homo sapiens) (UniProt O00329).
T2 sequence (whole entry): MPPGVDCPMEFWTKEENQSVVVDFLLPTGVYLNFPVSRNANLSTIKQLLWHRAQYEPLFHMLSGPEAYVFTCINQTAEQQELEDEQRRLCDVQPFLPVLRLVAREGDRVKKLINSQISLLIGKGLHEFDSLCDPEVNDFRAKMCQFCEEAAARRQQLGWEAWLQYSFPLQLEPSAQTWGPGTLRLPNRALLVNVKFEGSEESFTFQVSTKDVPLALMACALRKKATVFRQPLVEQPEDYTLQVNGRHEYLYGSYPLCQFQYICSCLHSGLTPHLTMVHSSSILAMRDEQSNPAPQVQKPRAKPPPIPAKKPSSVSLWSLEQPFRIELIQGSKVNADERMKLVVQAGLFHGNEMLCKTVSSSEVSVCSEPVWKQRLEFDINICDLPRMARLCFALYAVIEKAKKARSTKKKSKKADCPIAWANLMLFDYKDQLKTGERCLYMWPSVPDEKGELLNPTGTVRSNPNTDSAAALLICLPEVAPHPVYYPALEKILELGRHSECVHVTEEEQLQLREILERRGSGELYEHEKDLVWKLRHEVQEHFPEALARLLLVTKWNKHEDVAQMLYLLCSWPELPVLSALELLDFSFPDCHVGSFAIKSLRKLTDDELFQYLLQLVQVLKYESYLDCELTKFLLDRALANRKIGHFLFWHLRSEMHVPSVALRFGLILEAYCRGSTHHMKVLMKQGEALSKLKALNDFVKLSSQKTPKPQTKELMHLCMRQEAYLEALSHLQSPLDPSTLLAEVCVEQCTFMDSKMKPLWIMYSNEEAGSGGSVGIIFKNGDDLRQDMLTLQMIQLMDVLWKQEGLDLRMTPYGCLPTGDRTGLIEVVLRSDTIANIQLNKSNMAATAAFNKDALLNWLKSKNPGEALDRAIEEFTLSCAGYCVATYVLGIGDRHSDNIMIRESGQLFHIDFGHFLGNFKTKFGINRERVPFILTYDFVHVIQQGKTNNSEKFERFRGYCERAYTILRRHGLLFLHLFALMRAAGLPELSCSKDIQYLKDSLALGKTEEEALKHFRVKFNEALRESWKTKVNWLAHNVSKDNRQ
Kind of test: Selectivity interaction (KinomeScan (DiscoverX)) EUB0000666a PIK3CD. The note with it: at 10 µM.

Test [5] concerns the target Microtubule-associated serine/threonine-protein kinase 1 (Homo sapiens) (UniProt Q9Y2H9). In words: Selectivity interaction (KinomeScan (DiscoverX)) EUB0000607a MAST1. The note with it: at 10 µM.
Test [6] concerns the target Mitogen-activated protein kinase 14 (Homo sapiens, UniProt Q16539). Kind of test: Selectivity interaction (Enzyme panel (AstraZeneca, AlphaScreen, functional assay)) EUB0000621a MAPK14. For orientation: In Alpha technology, singlet oxygen from a donor bead excites a nearby acceptor bead.
The target in test [7] is Tyrosine-protein kinase SYK (Homo sapiens, UniProt P43405). In words: Selectivity interaction (ActivX KiNativ screen (kinase selectivity in THP-1 cell lysates)) EUB0000639a SYK. Format: subcellular. The following applies: lysate.
Test [8] deals with Ribosomal protein S6 kinase alpha-3 (Homo sapiens, UniProt P51812). Kind of test: Selectivity interaction (ActivX KiNativ screen (kinase selectivity in THP-1 cell lysates)) EUB0000639a RPS6KA3. The test is classed as subcellular. The following applies: lysate, at 0.01 µM.
The target in test [9] is Mitogen-activated protein kinase 8 (Homo sapiens, UniProt P45983). Kind of test: Selectivity interaction (Kinase panel (Invitrogen)) EUB0000639a MAPK8. The note with it: at 200 nM.
Chain of Mitogen-activated protein kinase 8 (P45983 whole entry): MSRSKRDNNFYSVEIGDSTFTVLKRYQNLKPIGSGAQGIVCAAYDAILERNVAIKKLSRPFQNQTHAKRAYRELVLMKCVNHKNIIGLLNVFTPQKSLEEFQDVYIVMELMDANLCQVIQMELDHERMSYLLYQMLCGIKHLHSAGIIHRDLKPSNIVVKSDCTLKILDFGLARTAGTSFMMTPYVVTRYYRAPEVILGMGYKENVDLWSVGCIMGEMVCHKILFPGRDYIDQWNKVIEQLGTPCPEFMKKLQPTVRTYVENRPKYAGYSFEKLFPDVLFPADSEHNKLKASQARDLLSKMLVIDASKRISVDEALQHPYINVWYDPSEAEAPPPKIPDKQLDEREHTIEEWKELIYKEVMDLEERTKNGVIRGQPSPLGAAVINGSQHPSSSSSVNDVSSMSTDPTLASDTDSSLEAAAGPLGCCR
The target in test [10] is Mitogen-activated protein kinase kinase kinase kinase 1 (Homo sapiens) (UniProt Q92918). Kind of test: Selectivity interaction (ActivX KiNativ screen (kinase selectivity in THP-1 cell lysates)) EUB0000639a MAP4K1. The test is classed as subcellular. The note with it: lysate, at 0.01 µM.
Chain of Mitogen-activated protein kinase kinase kinase kinase 1 (Homo sapiens) (Q92918 whole entry, looked up): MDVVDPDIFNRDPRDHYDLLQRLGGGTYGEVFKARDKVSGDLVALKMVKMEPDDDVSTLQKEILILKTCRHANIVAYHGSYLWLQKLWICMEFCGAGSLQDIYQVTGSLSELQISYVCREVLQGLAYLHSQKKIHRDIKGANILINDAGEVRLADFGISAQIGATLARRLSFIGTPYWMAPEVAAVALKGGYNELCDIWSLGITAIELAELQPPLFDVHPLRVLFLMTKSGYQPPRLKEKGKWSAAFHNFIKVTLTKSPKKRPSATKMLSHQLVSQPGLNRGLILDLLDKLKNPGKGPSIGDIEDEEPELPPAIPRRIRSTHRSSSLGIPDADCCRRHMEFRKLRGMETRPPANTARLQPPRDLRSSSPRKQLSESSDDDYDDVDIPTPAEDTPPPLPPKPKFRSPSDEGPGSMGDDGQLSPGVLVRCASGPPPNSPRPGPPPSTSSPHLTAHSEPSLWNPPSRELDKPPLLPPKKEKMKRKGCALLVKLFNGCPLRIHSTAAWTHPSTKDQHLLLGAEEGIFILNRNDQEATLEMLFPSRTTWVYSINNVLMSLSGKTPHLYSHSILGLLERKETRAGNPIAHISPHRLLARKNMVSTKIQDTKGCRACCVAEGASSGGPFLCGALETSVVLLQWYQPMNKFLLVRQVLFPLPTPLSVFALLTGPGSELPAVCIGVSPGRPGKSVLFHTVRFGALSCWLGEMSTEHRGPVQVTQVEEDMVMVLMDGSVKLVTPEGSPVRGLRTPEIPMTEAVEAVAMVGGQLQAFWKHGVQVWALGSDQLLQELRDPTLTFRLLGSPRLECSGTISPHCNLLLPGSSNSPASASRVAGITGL
The target in test [11] is BDNF/NT-3 growth factors receptor (Homo sapiens) (UniProt Q16620). Kind of test: Selectivity interaction (Kinase panel (Invitrogen)) EUB0000639a NTRK2. The following applies: at 200 nM.
Chain of BDNF/NT-3 growth factors receptor (Homo sapiens) (Q16620 32-822 limits assumed): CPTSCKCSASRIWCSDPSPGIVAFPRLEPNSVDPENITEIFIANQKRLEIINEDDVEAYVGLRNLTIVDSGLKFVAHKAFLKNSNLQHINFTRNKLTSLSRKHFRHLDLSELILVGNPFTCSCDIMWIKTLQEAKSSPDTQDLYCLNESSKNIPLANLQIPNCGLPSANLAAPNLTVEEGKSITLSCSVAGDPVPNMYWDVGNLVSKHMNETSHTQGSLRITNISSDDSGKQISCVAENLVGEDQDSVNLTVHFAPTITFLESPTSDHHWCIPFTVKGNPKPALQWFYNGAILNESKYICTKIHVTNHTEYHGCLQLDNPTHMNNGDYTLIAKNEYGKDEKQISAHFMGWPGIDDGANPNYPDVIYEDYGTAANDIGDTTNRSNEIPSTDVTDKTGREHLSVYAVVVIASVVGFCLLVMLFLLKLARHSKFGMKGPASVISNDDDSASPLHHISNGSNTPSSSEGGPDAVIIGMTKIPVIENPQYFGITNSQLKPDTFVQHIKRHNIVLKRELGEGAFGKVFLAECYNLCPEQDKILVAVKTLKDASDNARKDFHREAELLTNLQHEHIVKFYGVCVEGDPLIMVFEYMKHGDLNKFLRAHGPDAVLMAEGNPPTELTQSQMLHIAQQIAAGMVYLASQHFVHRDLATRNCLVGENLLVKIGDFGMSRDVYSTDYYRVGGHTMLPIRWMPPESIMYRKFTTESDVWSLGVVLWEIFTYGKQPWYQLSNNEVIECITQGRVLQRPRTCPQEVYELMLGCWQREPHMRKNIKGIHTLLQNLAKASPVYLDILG
Test [12] addresses T3, Dual specificity mitogen-activated protein kinase kinase 3 (Homo sapiens) (UniProt P46734).
T3 sequence (whole entry): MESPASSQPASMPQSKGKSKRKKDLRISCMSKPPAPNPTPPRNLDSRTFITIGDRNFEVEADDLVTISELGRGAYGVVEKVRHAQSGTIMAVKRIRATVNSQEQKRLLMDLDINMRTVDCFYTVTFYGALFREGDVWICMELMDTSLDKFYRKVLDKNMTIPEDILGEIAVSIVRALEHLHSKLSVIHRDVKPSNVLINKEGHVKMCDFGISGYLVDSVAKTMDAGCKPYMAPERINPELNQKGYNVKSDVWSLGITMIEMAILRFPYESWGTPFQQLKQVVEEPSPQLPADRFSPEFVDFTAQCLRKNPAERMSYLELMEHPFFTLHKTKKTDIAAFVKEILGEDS
Kind of test: Selectivity interaction (KinomeScan (DiscoverX)) EUB0000655a MAP2K3. The note with it: at 10 µM.

Test [13] deals with Ribosomal protein S6 kinase alpha-6 (Homo sapiens, UniProt Q9UK32). Kind of test: Selectivity interaction (KinomeScan (DiscoverX)) EUB0000229b RPS6KA6. The note with it: at 10 µM.

By IC50 is commonly meant the concentration at which inhibition is half-maximal.

Chain of Microtubule-associated serine/threonine-protein kinase 1 (Homo sapiens) (Q9Y2H9 whole entry, looked up): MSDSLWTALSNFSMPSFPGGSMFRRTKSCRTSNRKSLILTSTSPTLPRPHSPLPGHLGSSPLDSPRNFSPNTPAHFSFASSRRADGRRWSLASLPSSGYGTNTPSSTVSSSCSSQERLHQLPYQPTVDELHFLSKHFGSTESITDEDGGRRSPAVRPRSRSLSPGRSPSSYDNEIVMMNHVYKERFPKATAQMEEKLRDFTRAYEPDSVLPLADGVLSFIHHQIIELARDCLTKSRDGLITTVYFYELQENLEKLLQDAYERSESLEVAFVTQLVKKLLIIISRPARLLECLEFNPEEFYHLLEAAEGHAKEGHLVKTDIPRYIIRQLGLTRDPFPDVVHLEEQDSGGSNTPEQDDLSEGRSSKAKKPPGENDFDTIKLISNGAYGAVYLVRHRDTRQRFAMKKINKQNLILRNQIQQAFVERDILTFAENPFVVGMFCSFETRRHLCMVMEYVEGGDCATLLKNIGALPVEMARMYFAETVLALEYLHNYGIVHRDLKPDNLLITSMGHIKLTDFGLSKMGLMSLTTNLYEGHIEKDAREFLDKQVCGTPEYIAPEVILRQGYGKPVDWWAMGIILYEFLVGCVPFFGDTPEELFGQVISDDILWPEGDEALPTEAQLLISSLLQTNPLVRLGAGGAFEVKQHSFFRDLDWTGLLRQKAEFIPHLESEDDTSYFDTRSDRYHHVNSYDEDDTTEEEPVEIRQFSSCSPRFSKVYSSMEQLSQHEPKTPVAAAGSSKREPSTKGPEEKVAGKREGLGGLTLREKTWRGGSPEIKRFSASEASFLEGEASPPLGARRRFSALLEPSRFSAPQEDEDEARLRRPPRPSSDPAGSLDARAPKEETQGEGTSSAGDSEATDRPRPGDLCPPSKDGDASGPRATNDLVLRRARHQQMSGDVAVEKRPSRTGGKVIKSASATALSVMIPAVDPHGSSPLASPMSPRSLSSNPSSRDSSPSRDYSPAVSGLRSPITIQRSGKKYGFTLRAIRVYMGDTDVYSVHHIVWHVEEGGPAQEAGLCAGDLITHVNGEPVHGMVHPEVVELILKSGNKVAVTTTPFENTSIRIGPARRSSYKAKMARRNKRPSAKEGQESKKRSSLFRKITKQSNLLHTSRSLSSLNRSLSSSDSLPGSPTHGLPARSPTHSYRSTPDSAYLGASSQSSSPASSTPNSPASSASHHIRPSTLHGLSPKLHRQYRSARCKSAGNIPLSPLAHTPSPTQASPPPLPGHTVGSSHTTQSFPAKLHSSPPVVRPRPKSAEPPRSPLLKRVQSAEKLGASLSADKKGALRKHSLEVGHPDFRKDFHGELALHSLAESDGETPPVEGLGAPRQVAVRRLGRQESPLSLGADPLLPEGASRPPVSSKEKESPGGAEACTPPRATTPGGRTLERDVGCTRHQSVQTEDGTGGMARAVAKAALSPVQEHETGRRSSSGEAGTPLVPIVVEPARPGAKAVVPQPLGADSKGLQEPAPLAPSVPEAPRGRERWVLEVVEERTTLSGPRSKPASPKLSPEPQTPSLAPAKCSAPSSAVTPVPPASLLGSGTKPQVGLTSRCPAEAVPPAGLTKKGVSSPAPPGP
Chain of Mitogen-activated protein kinase 14 (Q16539 whole entry): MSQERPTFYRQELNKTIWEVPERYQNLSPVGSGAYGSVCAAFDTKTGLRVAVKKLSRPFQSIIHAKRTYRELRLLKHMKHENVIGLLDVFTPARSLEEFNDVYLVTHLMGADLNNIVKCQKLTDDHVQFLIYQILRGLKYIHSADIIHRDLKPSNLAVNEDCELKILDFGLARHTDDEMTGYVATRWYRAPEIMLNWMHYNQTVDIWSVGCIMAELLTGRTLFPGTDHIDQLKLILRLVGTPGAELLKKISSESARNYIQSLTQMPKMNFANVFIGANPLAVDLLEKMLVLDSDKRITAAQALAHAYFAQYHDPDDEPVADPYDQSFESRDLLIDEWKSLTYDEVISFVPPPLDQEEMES

Regarding `N#Cc1cccc(-c2c[nH]c3ncnc(N4CCOCC4)c23)c1`, in test [1], the % of inhibition came to 18%. In [2], this compound gave a % of control of 100%.

For `CCN(CC)CCCCNc1ncc2cc(-c3cc(OC)cc(OC)c3)c(NC(=O)NC(C)(C)C)nc2n1`, the % of control in test [3] is 100%.

For `O=C(NOC[C@H](O)CO)c1ccc(F)c(F)c1Nc1ccc(I)cc1F`, the % of control in test [4] worked out at 40%.

Take `CNC(=O)Nc1ccc(-c2nc(N3CC4CCC(C3)O4)c3cnn(C4CCC5(CC4)OCCO5)c3n2)cc1`: the % of control in test [5] came to 95%.

`Cc1cc([C@@H](C)Nc2ccccc2C(=O)O)c2nc(N3CCOCC3)cc(=O)n2c1` [AZD-6482] came in with an IC50 in test [6] of more than 671 µM.

For `CC[C@@H]1[C@H](F)C(=O)N[C@@H]1COc1nccc2cc(C(N)=O)c(OC)cc12` [ZIMLOVISERTIB], the % of inhibition in [7] (at 0.01 µM) was determined as 3.2%; in test [7] (at 0.04 µM) it was 14.7%; in test [7] (at 0.2 µM), 7.1%; in [7] (at 1 µM), 16.1%; in test [7] (at 5 µM), 2.5%; in test [8], 17.5%. The % of inhibition in [9] is -0.665%; in test [10] it was 6.1%; in test [11] it was 15.8%.

Regarding `CN(C)CCOc1ccc(-c2nc(-c3ccncc3)c(-c3ccc4c(c3)CC/C4=N\O)[nH]2)cc1`, in [12], the % of control worked out at 84%.

Regarding `COc1cc(N(C)c2ccnc3ccc(C(F)(F)F)cc23)cc(OC)c1OC`, the % binding in [13] worked out at 81%.

These data come from ChEMBL document CHEMBL5465560, “Selectivity Literature for EUbOPEN Chemogenomic Library” (2024).
